A short description of series [1]: ORAC-FL (oxygen radical absorbance capacity) assay. The format is biochemical. The conditions noted are these: mean ± SEM, n = 3; 2 h; read-out: ORAC-FL IC50 (compound concentration required for 50% reduction of peroxyl radical) (converted).
For the next series, the target named is T1, human erythrocyte AChE (Homo sapiens, UniProt P22303).
T1 construct: Human erythrocyte acetylcholinesterase (AChE, EC 3.1.1.7); purchased Sigma-Aldrich (Saint Louis, MO, USA); host or cells: human erythrocytes
T1 sequence (P22303 32-617 isoform P22303-2 limits assumed): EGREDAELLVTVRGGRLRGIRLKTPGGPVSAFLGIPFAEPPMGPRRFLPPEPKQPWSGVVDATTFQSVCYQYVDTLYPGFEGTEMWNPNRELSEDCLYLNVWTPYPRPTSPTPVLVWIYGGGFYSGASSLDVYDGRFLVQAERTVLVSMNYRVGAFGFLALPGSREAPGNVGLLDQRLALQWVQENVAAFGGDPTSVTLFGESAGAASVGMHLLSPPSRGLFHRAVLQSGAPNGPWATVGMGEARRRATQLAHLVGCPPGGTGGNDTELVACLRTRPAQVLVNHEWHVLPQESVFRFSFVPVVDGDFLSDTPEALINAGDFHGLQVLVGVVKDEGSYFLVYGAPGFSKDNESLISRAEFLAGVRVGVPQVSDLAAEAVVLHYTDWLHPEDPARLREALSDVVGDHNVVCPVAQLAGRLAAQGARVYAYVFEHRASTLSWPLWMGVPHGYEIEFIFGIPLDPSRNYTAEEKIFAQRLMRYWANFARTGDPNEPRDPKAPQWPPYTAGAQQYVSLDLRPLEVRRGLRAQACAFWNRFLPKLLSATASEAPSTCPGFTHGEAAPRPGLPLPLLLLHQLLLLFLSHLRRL
Briefly: Inhibition of AChE (Ellman's colorimetric assay). The format is biochemical. The conditions noted are these: read-out: AChE % inhibition at 20 μM. From the text:
Given the available literature data on the ability of pyrazole derivatives to inhibit acetylcholinesterase (AChE) and human carboxylesterase-1 (CES), we performed an investigation of the esterase profile for new compounds 1a–j and 4a–j, including an evaluation of their inhibitory effect on the standard enzymes set: human erythrocyte AChE, equine serum butyrylcholinesterase (BChE), and porcine liver CES (Table 2). The applicability of this set of enzymes was shown by us earlier.
Human erythrocyte acetylcholinesterase (AChE, EC 3.1.1.7), equine serum butyrylcholinesterase (BChE, EC 3.1.1.8), porcine liver carboxylesterase (CES, EC 3.1.1.1), acetylthiocholine iodide (ATCh), butyrylthiocholine iodide (BTCh), 4-nitrophenol acetate (4-NPA), and 5,5′-dithio-bis-(2-nitrobenzoic acid) (DTNB) were purchased from Sigma-Aldrich (Saint Louis, MO, USA).
All the kinetic experiments were performed under standard conditions, according to the protocol of IPAC RAS for a reversible inhibitors study.
Ellman’s colorimetric assay was used to measure AChE and BChE activity in 0.1 M K/Na phosphate buffer at pH 7.5, 25 °C [86]. Final concentrations of reactants were 0.33 mM DTNB, 0.02 unit/mL of AChE or BChE, and 1 mM of substrate (ATCh or BTCh, respectively). Reagent blanks consisted of reaction mixtures without enzyme to assess non-enzymatic hydrolysis of substrates. Porcine liver CES activity was assessed colorimetrically in 0.1 M K/Na phosphate buffer with pH 8.0 at 25 °C, by measuring the absorbance of 4-nitrophenol at 405 nm. Final enzyme and substrate (4-NPA) concentrations were 0.02 unit/mL and 1 mM, respectively. Reagent blanks included all constituents except enzyme.
Test compounds were dissolved in DMSO. Reaction mixtures contained a final DMSO concentration of 2% (v/v). Enzyme inhibition was first assessed at a single concentration of 20 µM for each compound after a 10 min incubation at 25 °C in three separate experiments. Compounds inhibiting the enzyme by more than 30% were then selected for determination of the IC50 (inhibitor concentration resulting in 50% inhibition of control enzyme activity). […] Substrate was then added, and residual enzyme activity relative to an inhibitor-free control was measured using a FLUOStar Optima microplate reader (LabTech, Ortenberg, Germany).
Background: Ellman's reagent forms a yellow product with free thiols.

Details of series [2]: method as in PMID 16997555. The conditions noted are these: relative to EDA; cited from earlier work.
Series [3] relates to normal human dermal fibroblast (NHDF) cultures. The series can be described thus: Cytotoxicity, MTT/formazan assay. The format is cell-based. The conditions noted are these: 72 h, MTT. How it is done:
Cytotoxicity of compounds was evaluated using a culture of human dermal fibroblasts, which were isolated in the Laboratory of Cell Cultures of the Institute of Medical Cell Technologies, Ekaterinburg, Russia. Cells were seeded in 96-well plates in the inoculum dose of 2 × 10^5 cells/mL and cultured for 24 h in Dulbecco’s Modified Eagle Medium (DMEM), with 1% (w/v) glutamine in the presence of 10% (v/v) fetal bovine serum and gentamicin (50 mg/L) at 37 °C, with a humidified atmosphere of 5% (v/v) CO2. Then, compounds, which were solved in DMSO, were added to the wells at the final concentrations of 0.1, 1, 10, and 100 µM. The cells were incubated with compounds for 72 h, after which cell viability was assessed using the standard MTT assay. The assay was carried out in four replicates with negative (culture medium) and positive (solution of the cytotoxic drug camptothecin at a concentration of 3 mM) controls, and the solvent control (DMSO). […] The MTT staining of control cells was taken as 100%.

[4] abbreviates: 20 μM, ± SEM, n = 3, 10 min incubation 25 °C.

Structures can show the parent of a compound that is named as a salt. Where two headings read alike, the source gives them in different places.

Broadly, the inhibition is the change of the read-out against control, counted positive when it falls. In the case of `Cl.Nc1c(C(F)(F)F)nn(-c2ccccc2)c1O` [4a, 4-Amino-3-(trifluoromethyl)-1-phenyl-1H-pyrazol-5-ol hydrochloride], in series [1], the IC50 was 8.8 µM. In addition, the inhibition at 20 µM on human erythrocyte AChE (setting [4]) is 7.9 ± 1.5%.
Turning to `Cl.Nc1c(C(F)(F)F)n[nH]c1O` [4e, 4-Amino-3-(trifluoromethyl)-1H-pyrazol-5-ol hydrochloride], the inhibition at 20 µM on human erythrocyte AChE (setting [4]) was 9.7 ± 1.5%.
In the case of `Oc1cc(C(F)(F)F)nn1-c1ccccc1` [CF3-EDA, 3-trifluoromethyl-1-phenylpyrazol-5-ol, reference compound], the “Times less active compared to EDA in the OH radical binding test” value in series [2] is on record as 3 times. Besides, the IC50 in series [1] was 6.3 µM.
As for `Cl.Nc1c(C(F)(F)C(F)(F)F)n[nH]c1O.O` [4g, 4-Amino-3-(pentafluoroethyl)-1H-pyrazol-5-ol hydrate hydrochloride], the inhibition at 20 µM at human erythrocyte AChE was found to be 17.3 ± 1.7%.
`Cc1nn(-c2ccccc2)c(O)c1N.Cl.O` [4d, 4-Amino-3-methyl-1-phenyl-1H-pyrazol-5-ol hydrochloride hydrate]: the IC50 in series [1] was 6.85 µM. For the same molecule, the “Cytotoxicity against NHDF cell culture” value is listed as “neither of the compounds 4d,j showed cytotoxicity” in series [3] (100 µM) and “not cytotoxic” in series [3] (100 µM, listed as APH). For the same molecule, the inhibition at 20 µM on human erythrocyte AChE was 6.5 ± 1.2%.
Consider `Cl.Nc1c(C(F)(F)C(F)(F)F)nn(-c2ccccc2)c1O.O` [4b, 4-Amino-3-(pentafluoroethyl)-1-phenyl-1H-pyrazol-5-ol hydrate hydrochloride], for which the inhibition at 20 µM at human erythrocyte AChE is 4.4 ± 1.1%.
For “3-methyl-1-phenyl-2-pyrazolin-5-one [EDA, reference compound]”, the IC50 in series [1] was 5.6 µM. In addition, the “Inhibitory Capability (IC, %) on NHDF” value in series [3] (1 µM) is reported as 3.74 ± 0.05%; in series [3] (10 µM), 19.9 ± 0.8%; in series [3] (100 µM) it was 32.8 ± 0.6%.
Take `Nc1c(C(F)(F)C(F)(F)C(F)(F)C(F)(F)F)nn(-c2ccccc2)c1O` [4c, 5-Hydroxy-1-phenyl-3-(nonafluorobuthyl)-1H-pyrazol-4-ammonium hydrochloride]: at human erythrocyte AChE, the inhibition at 20 µM worked out at 19.2 ± 1.7%.
Regarding `Cc1n[nH]c(O)c1N.Cl` [4j, 4-Amino-3-methyl-1H-pyrazol-5-ol hydrochloride], the “Cytotoxicity against NHDF cell culture” value in series [3] (100 µM) is given as “neither of the compounds 4d,j showed cytotoxicity”.
`Cl.Nc1c(C(F)(F)C(F)(F)C(F)(F)C(F)(F)F)n[nH]c1O.O` [4i, 4-Amino-3-(nonafluorobutyl)-1H-pyrazol-5-ol hydrate hydrochloride]: the inhibition at 20 µM at human erythrocyte AChE was 5.1 ± 0.9%.

The record behind these values is article PMC9699072 (Molecules, 2022).
